Experimental data taken from patent publication US10220112B2, “Cyclic antimicrobial pseudopeptides and uses thereof” (INSERM (INSTITUT NATIONAL DE LA SANTE ET DE LA RECHERCHE …, priority 2014, dated 2019).
≈ marks a conversion by molar mass, not a printed value. Starred links: 1 amine or outer side, 2 acyl side, 3 side chain; linkers in the order of their positions; H or OH if unused. Non-standard residues stand in square brackets, D forms with d. Residues, ends and D or L forms follow the SMILES beside them. X1 = O=C(CN(CC(O)CO)N[*:1])[*:2]

Key:
E. coli strain ML-35p = assay: E. coli outer and inner membrane permeabilization assays (nitrocefin / ONPG); assay type: cell-based, Escherichia coli
Protocol: E. coli outer and inner membrane permeability was determined by using E. coli strain ML-35p, which is lactose permease deficient. Nitrocefin, β-lactam is excluded by the outer cell membrane but, if it can pass this barrier thanks to the action of an AMP, it is then cleaved by the β-lactamase localized within the periplasm. ONPG, passes through lac permease and is cleaved by the cytoplasmic β-galactosidase, however with the ML-35p E. coli strain, ONPG is excluded unless permeabilization is achieved. The permeabilization assays were carried out with 100 μL of bacteria in MH broth at A600 nm 0.1-0.2 (10^7 cfu/mL, density necessary to detect degradation products). […] ONPG was added to a 100 μg/ml final concentration and substrate cleavage was monitored by light absorption measurements at 420 nm. Polymixin B at 8 μM against 10^7 cfu/mL was used as positive control. Bacterial suspension in MH broth plus substrates was used as negative control (untreated cells).

[1] = Peptides stability in human sera (RP-HPLC)
Protocol: Peptides stability in human sera. […] The initial time was recorded, and at known time intervals, 100 μL of reaction solution was removed and quenched by adding 200 μL of 95% EtOH and adjusted at pH=2 to eliminate the effect of peptides adsorption to the protein of the human serum. The cloudy reaction sample was cooled (4° C.) for 15 minutes and then spun at 14 000 rpm (Eppendorf centrifuge) for 4 minutes to pellet the precipitated serum proteins.
The different peptides were incubated with human serum up to 10 hours, and their stability was analyzed and their half-lives determined by RP-HPLC (FIG. 1).

[2] = tested on: Staphylococcus aureus strain Newman
Protocol: (§1) The antibacterial activity of the synthesized peptides was measured using a standard microdilution assay. Two bacterial species were tested, Staphylococcus aureus strain Newman and Escherichia coli strain K12 XL-Blue. Bacterial strains were subcultured in Mueller-Hinton broth. […] Bacteria were grown to an optical density (600 nm) of 0.5 and diluted 10^3 times in MH broth. Cell density in wells was 10^5 cfu/mL. 100 μL of this suspension was mixed with 100 μL of 2-fold serial dilutions of peptides in the well of a microtitre plate. Purified peptides were first dissolved in appropriate solvent to a final concentration of 2 mg/mL, in the microtitre plate, dilutions were made in MH broth from 1 to 0.004 mg/mL. […] Results obtained in massic concentrations were converted to molar concentrations for proper comparisons. Tests were performed in triplicate.
(§2) The results presented in Table 2 below were obtained in triplicate as described in the case of Table 1 except that the starting concentration was […] instead of 1 mg/mL.

[3] = tested on: Escherichia coli strain K12 XL-Blue
Protocol: as §1, §2

human erythrocytes = assay: Lytic activity against human erythrocytes; assay type: cell-based; conditions: for Human cells % hemolysis at 500 μM / Human cells H50: Table 2; for Human cells H50: maximal concentration 500 μM
Protocol: Human blood was collected from EFS (‘Etablissement Francais du Sang’) in Rennes (France). […] After centrifugation, the absorbance of the supernatant was measured at 414 nm. Three wells were positive controls, where the RBC were mixed with water 1% Triton X-100, in these wells the totality of RBC were hemolyzed and the release of hemoglobin was considered to be 100%. Three wells were negative controls, where the RBC were mixed with PBS buffer, in these wells hemolysis was considered to be null. The percentage of hemolysis in each test well was calculated by comparing with controls. For each peptide, bloods from three different donors were tested.

[4] = tested on: VISA strain S. aureus Mu 50; assay: microbe, parasite or virus in culture; conditions: Staphylococcus aureus, read-out: VISA MIC
[5] = tested on: MRSA strain S. aureus N315; assay: microbe, parasite or virus in culture; conditions: Staphylococcus aureus, read-out: MRSA MIC
[6] = no colonies on BHI agar after 24 h 37°C

Compound: polymixin B
- time to detection of the reporter, inner membrane (E. coli strain ML-35p; ONPG, polymixin B 8 μM, peptides 6 μM and 12 μM): 20 min
- time to detection of the reporter, outer membrane (E. coli strain ML-35p; nitrocefin, polymixin B at 8 μM): 30 s

Compound: N=C(N)NCCC[C@@H]1NC(=O)[C@H](Cc2c[nH]c3ccccc23)NC(=O)[C@H](Cc2ccccc2)NC(=O)[C@H](Cc2ccccc2)NC(=O)[C@H](CCCCN)NC(=O)CN(CC(O)CO)NC(=O)[C@H](CCCNC(=N)N)NC1=O (some centres unmarked) [Pep11, (FFWRRΨHytK)] (cyclo(FFWRR[X1]K))
- higher stability in human serum than the PepA1 parental peptide [1]: ~240 fold
- S. aureus MIC ([2]; Table 1, strain Newman, 20 h 37°C, maximal concentration 1 mg/mL): 7 µM
- fold higher antibacterial activity compared to Pep10 ([2]; against the two model bacteria): four-fold
- Minimum Bactericidal Concentration (MBC), S. aureus [2, 6]: 16 µM
- E. coli MIC ([3]; Table 1, strain K12 XL-Blue, 20 h 37°C, maximal concentration 1 mg/mL): 3 µM
- Minimum Bactericidal Concentration (MBC), E. coli [3, 6]: 8 µM
- fold less haemolytic on human erythrocytes than PepA1 (human erythrocytes): about 12 fold
- fold less hemolytic compared to Pep10 (human erythrocytes): six-fold
- hemolysis at 0.2 mg/mL (human erythrocytes; 0.2 mg/mL (50 μM PepA1, 160 μM Pep11), value expected when choosing SEM concentration): 10%
- Human cells H50 (peptide concentration at which half of the human erythrocytes are lysed) (human erythrocytes; Table 1, 2 h 37°C, maximal concentration 1 mg/mL): 840 µM
- hemolysis at the MIC (human erythrocytes; human erythrocytes, at the peptide's MIC): no hemolysis

Compound: COc1cccc(OC)c1C(=O)N[C@@H]1C(=O)N2[C@@H]1SC(C)(C)[C@@H]2C(=O)O [Meticillin, reference compound]
- MIC [4]: > 500 µM
- Human cells % hemolysis at 500 μM (human erythrocytes): 0.12%
- Human cells H50 (human erythrocytes): nd (not detectable at the maximal concentration tested (500 μM))

Compound: CN[C@H](CC(C)C)C(=O)N[C@H]1C(=O)N[C@@H](CC(N)=O)C(=O)N[C@H]2C(=O)N[C@H]3C(=O)N[C@H](C(=O)N[C@H](C(=O)O)c4cc(O)cc(O)c4-c4cc3ccc4O)[C@H](O)c3ccc(c(Cl)c3)Oc3cc2cc(c3O[C@@H]2O[C@H](CO)[C@@H](O)[C@H](O)[C@H]2O[C@H]2C[C@](C)(N)[C@H](O)[C@H](C)O2)Oc2ccc(cc2Cl)[C@H]1O [Vancomycin, reference compound]
- MIC [5]: 32 µM (≈ 46.4 µg/mL)
- MIC [4]: 1 µM (≈ 1.45 µg/mL)
- Human cells % hemolysis at 500 μM (human erythrocytes): 0.15%
- Human cells H50 (human erythrocytes): nd (not detectable at the maximal concentration tested (500 μM))
